Patent US6521443B1, “Growth medium for lactobacilli containing amino acids, nucleosides and iron” (Nestec S.A., priority 1999, dated 2003)

Legend:
Type in all cases: cell-based
Lactobacilli = assay: growth of Lactobacilli in supplemented milk (general trials); conditions: addition of ribonucleosides to milk
Experimental: In order to find the identity of other stimulatory substances, several trials were performed with ribonucleotide precursors, that is free bases such as adenine, guanine, cytosine, thymine, and uracil, ribonucleosides such as adenosine, cytidine, uridine, and guanosine, and 2′-deoxyribonucleosides such as deoxyadenosine, deoxyguanosine, deoxycytidine, deoxyuridine and thymidine. These compounds were supplemented to milk as concentrated alkaline or neutral solutions at different concentrations.
This finding confirmed the hypothesis that the low level of purines in milk negatively affects bacterial growth therein. […] Without being bound by theory, it is believed that the high content of orotic acid allows the synthesis of pyrimidine bases. No significant differences in pH-values were detected by the addition of free bases and deoxyribonucleosides between aerobic and anaerobic conditions. […] The positive effect was observed particularly with the addition of ribonucleosides in anaerobic environment.
(§1) The growth results were estimated by cell counts and a final pH measurement performed after 24 hours incubation at 37 ° C. Rapid Analysis of Bacterial Impedance Technique (RABIT) (Don Whitley Scientific, West Yorkshire, UK) was used to perform trials with skim and whole UHT milk for 24 hours at 37° C.

L. johnsonii ATCC 33200 = assay: omission technique with RABIT in skim milk; conditions: skim milk with four ribonucleosides and ferrous sulphate
Experimental: as §1
In order to determine those amino acids having an essential role for L. johnsonii growth in milk, the “omission technique” (Reiter, B. & Oram, J. D, I. Dairy Res, 29 (1962), 63-77) was applied by culturing the strain ATCC 33200^T in skim milk, adding four ribonucleosides and ferrous sulphate (positive control), supplemented with the mixture of 19 amino acids described above deprived of one particular component at each given time.

L. johnsonii = assay: growth assay in milk, L. johnsonii (strain not specified)
Experimental: Skim milk (Difco) 10% w/v in sterile water and whole fat UHT milk (Parmalat, Italy) were used to perform the growth assays. The milk tubes were 1% inoculated from an overnight MRS culture washed twice and finally re-suspended with the same amount of sterile distilled water in order to avoid nutrient transfer via the medium.
Milk tubes were incubated aerobically in a thermostat (Sorvall Heraeus) at 37° C. for 24 hours, or anaerobically in an anaerobic incubator (Model 1024, Forma Scientific, USA) at 37° C. for 24 hours.
The chemicals supplemented to the milk were added as concentrated solutions prepared according to standard methods, i.e., the Merck Index instructions. The final pH of milk was adjusted to 6.8 after supplementation using an aqueous 4N sodium hydroxide solution. The initial pH of the 10% skim milk solution and whole fat UHT milk was 6.8 and 6.7, respectively.
as §1
A final pH of 4.1 was measured after amino acids supplementation, but the cell count was still not satisfactory. The cell count when a 10% skim milk with 19 amino acids added increased from 1.0×10^7 CFU/ml to 40×10^7 CFU/ml, which is a factor of 40 increase but is less than the factor of 300 increase observed with 10% skim milk and yeast extract.

Compound: Nc1ncnc2c1ncn2[C@@H]1O[C@H](CO)[C@@H](O)[C@H]1O [adenosine]
- improvement of growth conditions in milk (Lactobacilli): strongest effect

Compound: C[C@H](N)C(=O)O [alanine]
- effect of amino acid on growth (RABIT, omission technique) (L. johnsonii ATCC 33200): excellent results

Compound: N[C@@H](CS)C(=O)O [cysteine]
- pH in the presence of cysteine (L. johnsonii; aerobic conditions): 3.9
- pH in absence of cysteine (L. johnsonii; anaerobic conditions): 4.3
- effect of amino acid on growth (RABIT, omission technique) (L. johnsonii ATCC 33200): excellent results

Compound: Nc1nc2c(ncn2[C@@H]2O[C@H](CO)[C@@H](O)[C@H]2O)c(=O)[nH]1 [guanosine]
- improvement of growth conditions in milk (Lactobacilli): strongest effect

Compound: CC[C@H](C)[C@H](N)C(=O)O [isoleucine]
- effect of amino acid on growth (RABIT, omission technique) (L. johnsonii ATCC 33200): excellent results

Compound: N[C@@H](CO)C(=O)O [serine]
- effect of amino acid on growth (RABIT, omission technique) (L. johnsonii ATCC 33200): excellent results

Compound: O=C(O)CS [thioglycollic acid]
- cell counts (L. johnsonii; aerobic conditions, final concentration 0.5% v/v, replacing cysteine): more than 100×10^7 CFU/ml
